{
  "source": "paper PMC3993903",
  "about": "(Molecular pharmaceutics, 2014)",
  "format_in_all_cases": "cell-based, human",
  "key": {"[1]": {"tested_on": "drug-resistant cervical cancer cells KB-V1", "experiment": "Cellular uptake by KB-V1 cells", "conditions": "5 µM, absence or presence of equal molar C8-Tat (5 µM), flow cytometry"}, "KB-3-1 cells": {"tested_on": "KB-3-1 cells", "experiment": "Cytotoxicity", "conditions": "2 h treatment with 5 or 15 µM, further 46 h in drug-free medium, SRB, mean ± s.d. n = 3"}, "KB-V1 cells": {"tested_on": "KB-V1 cells", "experiment": "Cytotoxicity", "conditions": "2 h treatment with 5 or 15 µM, further 46 h in drug-free medium, SRB, mean ± s.d. n = 3"}},
  "data": [
    {"smiles": "COc1cccc2c1C(=O)c1c(O)c3c(c(O)c1C2=O)C[C@@](O)(C(=O)CO)C[C@@H]3O[C@H]1C[C@H](N)[C@H](O)[C@H](C)O1", "note": "[Dox, doxorubicin]", "values": [
      {"measurement": "intracellular accumulation with or without C8-Tat treatment", "setting": "[1]", "result": "almost identical"},
      {"measurement": "short-term cytotoxicity (cell viability)", "setting": "KB-3-1 cells", "result": "toxicity toward drug-sensitive cells"},
      {"measurement": "short-term cytotoxicity (cell viability)", "setting": "KB-V1 cells", "result": "not on drug-resistant cells"}
    ]}
  ]
}
